Data reported in paper PMC12250754, “Phytochemical Screening and Biological Activities of Lippia multiflora Moldenke” (Molecules, 2025).
Values after ≈ are worked out from the molar mass of the structure shown. Like-named read-outs stand apart in the source and are kept apart here. Marks after values point to notes of the source that are not given here.

Legend:
[1] = DPPH free radical scavenging assay; details: mean ± SD, n = 3
Description: The DPPH free radical scavenging ability was evaluated for the crude extracts using the DPPH (2,2-diphenyl-1-picrylhydrazyl) assay using a modified spectrophotometric method of Motamed and Naghibi (2010) [81]. The crude extracts (100 µL) were added to a 96-well plate containing distilled water (100 µL). After serial dilution, a 0.3 M DPPH/methanol (200 µL) solution was added to the mixture. The mixture was left at room temperature for 30 min, and the absorbance was measured using a SoftMax^R Pro 6 (version 6.3) microplate reader at 517 nm. All the crude extracts were tested in triplicate.
The percentage of radical scavenging was calculated by the following formula:% Free RSA = [(ADPPH − Asample)/(ADPPH)] × 100(2) where ADPPH is the absorbance of the DPPH solution and Asample is the absorbance of the samples and DPPH. The ability of the crude extracts to inhibit 50% of the free radical (IC50) was extrapolated from a graph of % RSA against concentration.

[2] = Reducing power assay; details: mean ± SD, n = 3
Description: The reducing capacity of the crude extracts was estimated as described by Pereira et al. (2013). Fifty microliters of the crude extracts were mixed with fifty microliters of sodium phosphate buffer (0.2 M, pH 6.6). After serial dilution, a potassium hexacyanoferrate (1% aqueous, 50 μL) solution was added. A trichloroacetic acid (10%, 50 μL) solution was added after 20 min of incubation at 50 °C. Eighty microliters of each mixture was moved to another 96-well plate containing eighty microliters of distilled water. […] All the crude extracts were tested in triplicate.

[3] = cited from earlier work
[4] = cited from earlier work; remark: listed apart in the source
[5] = set-up: method as in earlier work; details: ref 65 (Gülçin et al. 2012); cited from earlier work
[6] = set-up: method as in earlier work; details: ref 65 (Gülçin et al. 2012); cited from earlier work; remark: listed apart in the source
[7] = tested on: Vero cells; assay: MTT cytotoxicity assay; assay type: cell-based, African green monkey; details: Chlorocebus sabaeus, 48 h, Vero monkey kidney cells, two days incubation, mean ± SD, n = 3
Description: African green monkey (Vero) kidney cells (ATCC CCL-81, Cellonex, Johannesburg, South Africa) were cultured in Minimal Essential Medium (MEM), which consisted of Earle’s Balanced Salt Solution (EBSS) and L-Glutamine (2.0 mM) (Cytiva Hyclone, Marlborough, MA, USA) and was supplemented with 10% fetal bovine serum (FBS) and 1% penicillin/streptomycin (P/S, Biowest, Nuaille, France). These cells were incubated for 48 h at 37 °C in a 95% air and 5% CO2 humidified incubator (Nϋve, Ankara, Turkey). The cells were trypsinized with 0.25% trypsin/EDTA (Cytiva Hyclone, Marlborough, MA, USA) and split at a ratio of 1:5 for further passaging at 70 to 80% confluency. […]
The 3-(4,5-dimethylthiazol-2-yl)-2,5-diphenyltetrazolium bromide (MTT) cytotoxicity assay was determined as described by Mariri et al. (2024). The cytotoxic effects of the crude extracts of Lippia multiflora were evaluated against Vero cells. […] The mixture was kept in the dark for 15 min, and the absorbance was measured spectrophotometrically at 570 nm on a SpectraMax iD3 multi-mode microplate reader (Winooski, VT, USA). The cell viability was calculated as the percentage (%) of negative control (0.5% dimethyl sulfoxide; see Equation (3)).
The extracts were calculated using the following equation:(3) Cell viability%=Abssample−AbsBlank/Absnegative control−AbsBlank×100 where Abs is the absorbance.

O=C1O[C@H]([C@@H](O)CO)C(O)=C1O [Ascorbic acid, ascorbic acid]
DPPH IC50 [1]: 44.308 ± 9.813 ^b µg/mL
Reducing Power IC0.5 [2]: 0.355 ± 0.393 ^a µg/mL

COc1ccc(-c2coc3cc(O[C@@H]4O[C@H](CO)[C@@H](O)[C@H](O)[C@H]4O)ccc3c2=O)cc1 [Compound 8, Formononetin-7-O-glucoside (Ononin)]
DPPH radical IC50 ([3]; ref 62 (Zgórka et al. 2022)): 30.18 ± 0.37 mg/L
ABTS radical IC50 ([4]; ref 62 (Zgórka et al. 2022)): 30.30 ± 0.18 mg/L

C[C@@H]1O[C@@H](Oc2c(-c3ccc(O)c(O)c3)oc3cc(O)cc(O)c3c2=O)[C@H](O)[C@H](O)[C@H]1O [Compound 10, Quercitrin]
DPPH radical scavenging IC50 ([3]; isolated from ethyl acetate stem of Lippia graveolens, ref 70 (González Güereca et al. 2007)): 11.24 ± 1.10 µg/mL

CCCCC[C@H](O)CC(=O)CCc1ccc(O)c(OC)c1 [Compound 11, 6-Gingerol]
DPPH radical scavenging EC50 ([3]; isolated from rhizome of Zingiber officinale, ref 67 (Wang et al. 2003)): 23.07 mg/L

Oc1cc(O)c2c(c1)O[C@H](c1cc(O)c(O)c(O)c1)[C@H](O)C2 [Compound 14, (−)-Epigallocatechin]
DPPH radical scavenging IC50 ([3]; from Japanese knotweed rhizome bark extract, ref 64 (Jug et al. 2021)): 1.5 µg/mL^−1

COC(=O)C1=COC(C)C2CN3CCC4(C(=O)Nc5c4ccc(OC)c5OC)C3CC12 (stereo not drawn) [Compound 15, Isomajdine]
ABTS scavenging EC50 ([4]; ref 65 (Gülçin et al. 2012)): 34.11 mg/L
DMPD scavenging EC50 [5]: 32.09 mg/L
Ferrous ion (Fe^2+) chelating activity EC50 [6]: 10.05 mg/L

COc1cccc2c1C(=O)c1c(O)c3c(c(O)c1C2=O)C[C@@](O)(C(=O)CO)C[C@@H]3O[C@H]1C[C@H](N)[C@H](O)[C@H](C)O1 [Doxorubicin]
IC50 [7]: 4.97 ± 0.83 mg/L (≈ 9.14 µM)

O=C(O)c1cc(O)c(O)c(O)c1 [Gallic acid, gallic acid]
DPPH IC50 [1]: 37.340 ± 17.529 ^ab µg/mL
Reducing Power IC0.5 [2]: 8.210 ± 11.257 ^a µg/mL

O=c1c(O)c(-c2ccc(O)c(O)c2)oc2cc(O)cc(O)c12 [Quercetin, quercetin]
DPPH IC50 [1]: 37.361 ± 21.356 ^b µg/mL
Reducing Power IC0.5 [2]: 3.760 ± 2.979 ^a µg/mL
